Source: PMC9525908, “α-Crystallin chaperone mimetic drugs inhibit lens γ-crystallin aggregation: Potential role for cataract prevention” (The Journal of Biological Chemistry, 2022)
“Also recorded” adds a separate entry of the source.

Assays:
HγD-ox = molecular target: T1, HγD-ox (Homo sapiens, UniProt P07320); test: Turbidity (600 nm) of oxidized HγD heated 10 min at 72 °C; format: biochemical; conditions: 1.4 mg/ml with DTPA, 100 and 500 μM bis-ANS, 100 μM drug C, 500 μM drug M
T1 construct: made in house; host or cells: Escherichia coli BL21(DE3) pLysS, pET3d vector
T1 sequence (P07320 1-174): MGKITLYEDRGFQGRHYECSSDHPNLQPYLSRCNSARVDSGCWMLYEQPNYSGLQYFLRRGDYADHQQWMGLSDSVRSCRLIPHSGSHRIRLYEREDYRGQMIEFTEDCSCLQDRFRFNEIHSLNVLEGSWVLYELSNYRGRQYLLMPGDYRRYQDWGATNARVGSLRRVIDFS
Text: In postsubmission experiments, we attempted to find mechanistic clues relevant to the use of an H2O2 oxidation step prior to the thermal stress used during the initial drug screen. For this reason, we did a comparative study of oxidized (HγD-ox) versus native HγD (HyD-nat), hypothesizing that bis-ANS would both act like the drugs and provide information on the role of exposed hydrophobicity ([40]). HγD was oxidized in diethylenetriaminepentaacetic acid […] phosphate buffer to facilitate hydroxyl radical formation and protein damage, followed by dialysis against DTPA-treated buffer to eliminate the known proaggregating effects of divalent metals ([32]) in the subsequent steps. […] Overall protective effects were more pronounced for the oxidized than nonoxidized form of HγD. […] In the hope to obtain clues on the impact of bis-ANS, drugs C, G, and M on protein aggregation status, native PAGE was performed (Fig. 3G). Polymers greater than 250 kD are present in unheated HγD-nat but only the size of 75 to 100 kD in HγD-ox. […] Other techniques will be needed to assess the relationship between drugs and aggregate size.

HγD = molecular target: T2, HγD (Homo sapiens, UniProt P07320); conditions: 600 μM drug C, tested by an outside laboratory; cited from earlier work
T2 construct: made in house; host or cells: E. coli BL21(DE3) pLysS, pET3d vector
T2 sequence (P07320 1-174): T1 sequence (P07320 1-174)

WT-HγD crystallin = molecular target: T3, WT-HγD crystallin (Homo sapiens, UniProt P07320); test: Thermal unfolding of WT-HγD by fluorescence ratio (Tm); format: biochemical; conditions: for Tm: 10 μM WT-HγD, 100 μM drug, fluorescence ratio 360/330 nm, control 81 °C; for Tm of HγD-nat: 100 μM agent, 360/320 nm ratio, 78 ± 0.1 °C without agent; for Elevation of Tm of HγD: versus control 81 °C
T3 construct: made in house; host or cells: E. coli BL21(DE3) pLysS, pET3d vector
T3 sequence (P07320 1-174): T1 sequence (P07320 1-174)
Text: His-tag free recombinant HγD crystallin produced in Escherichia coli using pET3d or pET17b expression vector was used to investigate the effects of compounds C and G against thermal-induced unfolding and aggregate formation. The antiaggregation potency of drug C and G was reconfirmed by dynamic light scattering (DLS) (Fig. 2A). […] There is a decrease in the size of aggregates from as high as 7261 nm without drugs to 30.5 nm with drug C and 84.9 nm with drug G. Drug M has moderate activity with mean aggregate size of 569 nm radius (Table S2). […] Furthermore, we investigated whether these drugs can prevent thermal unfolding of HγD (Fig. 2C). […] It is the temperature at which 50% of the protein unfolds.
Thermal denaturation study was monitored using fluorescence spectroscopy. Protein solutions (10 μM) in the presence and absence of drugs or bis-ANS (100 μM) were heated continuously from 30 to 95 °C, and the fluorescence data were collected every 5 °C after 1 min equilibration at the given temperature. Unfolding data were fit to Greene and Pace’s two-state model ([82]) using GraphPad Prism software (GraphPad Software, Inc).

15N-labeled HyD = molecular target: T4, 15N-labeled HyD (Homo sapiens, UniProt P07320); test: NMR HSQC of 15N-labeled HyD with drug C; format: binding; conditions: 100 μM protein, 600 μM drug C, 5% DMSO
T4 sequence (P07320 1-174): T1 sequence (P07320 1-174)

[1] = test system: Total mouse gamma crystallins; test: H2O2 oxidation-mediated aggregation of total mouse γ-crystallins, 600 nm; format: biochemical; conditions: 2.5 mg/ml, H2O2, 18 h at 37 °C
Method: In preparation for possible in vivo testing, the drugs were tested against native mouse γ-crystallins. Total gamma crystallins (2.5 mg/ml) were incubated with H2O2 for 18 h at 37 °C with increasing concentrations of drugs X, C, and G, or a combination thereof. Oxidative stress–mediated aggregation at 600 nm was suppressed by drug C but poorly by drug G (Fig. S4A, left panel). […] The baseline increase at 50 μM could reflect a destabilizing effect of the drugs because of a pro-oxidative mechanism followed by stabilizing chaperone-like effect. […] There is 52.6% more aggregation of OPJ-MγS in comparison to WT-MγS under same conditions of thermal stress. […] Fluorescence microscopy using Nile Red provides a pictorial rendition of the type and size of aggregates formed on heating WT-MγS and OPJ-MγS, with and without drugs (Fig. S4F). […] The bis-ANS fluorescence inhibition pattern is again in complete agreement with the previous results for HγD (Fig. 2F). […] As for the reproducibility of these findings, see Fig. S7 and the warning note under Rigor and reproducibility section.

Row | SMILES | Effect on aggregation/turbidity of HγD-ox (HγD-ox) | Effect on heat-mediated aggregation of HγD (HγD) | Tm (WT-HγD crystallin) [°C] | Tm of HγD-nat (WT-HγD crystallin) | Elevation of Tm of HγD (WT-HγD crystallin) [°C] | HSQC spectra, drug-treated versus control sample (15N-labeled HyD) | Oxidative stress–mediated aggregation at 600 nm [1]
1 | Cc1cc(C(C#N)c2ccc(Cl)cc2)c(Cl)cc1NC(=O)c1cc(I)cc(I)c1O (stereo not drawn) [drug C, Closantel] | strongly suppressed | worsening | 85 | increased all Tm values to the maximum value | 4 | no significant differences | suppressed
2 | CC(C)=CCC[C@]1(C)C=Cc2c(O)c3c(c(CC=C(C)C)c2O1)O[C@]12C(=C[C@@H]4C[C@H]1C(C)(C)O[C@@]2(C/C=C(/C)C(=O)O)C4=O)C3=O [drug G, Gambogic acid] | – | – | 85 | increased all Tm values to the maximum value | 4 | – | poorly
3 | O=C(O)CCCCCCCCCCCC[C@@H]1C=CCC1 [drug M, Chaulmoogric acid] | strongly suppressed; also recorded: protected oxidized HγD | – | – | – | – | – | –
